Patent US9162975B2, “Phenyl carbamate compounds for use in alleviating or treating pain” (Bio-Pharm Solutions Co., Ltd., priority 2011, dated 2015)

Tests used:
ICR mice [1] = assay: Hot-plate test; format: in vivo; details: withdrawal latency relative to vehicle control, 150 mg/kg po, hot plate 55±1° C.
Description: To examine the pain relief effect of the phenyl carbamate compounds, a hot-plate test was conducted in general pain animal model referring to Current Protocols in Neuroscience; Behavioral Neuroscience Unit 8.9.
ICR mice (male, 30-35 g; Orient Bio, Korea) were habituated before test in test room for 1 hour Animals were fasted 2 hr before administration of compounds. Each of Compound 1, 2, 3, 4, 5, 63, 65, and 67 was orally administered at the dose of 150 mg/kg, 10 ul/g, bw (n=7˜10/group). All compounds were dissolved in a vehicle of 30% (v/v) PEG 400 or 20% (v/v) Tween 80. The control group was treated the vehicle without compounds.
0.5 hr after the administration of compounds, the mice were put on a hot plate pre-heated to 55±1° C. (Hu, X. et al, 2008), and then, measured as the withdrawal latency (cut-off time: 30 sec) time until the point when each mouse was taking off a paw from the plate, shaking, licking a paw or hind leg, or jumping from the plate.

ICR mice [2] = assay: Writhing test (acetic acid); format: in vivo; details: number of writhes relative to vehicle control, 20 mg/kg po, 0.6% acetic acid
Description: To examine the pain relief effect of the phenyl carbamate compounds, a writhing test was conducted in general pain animal model referring to Fischer, L. G. et al. (2008).
ICR mice (male, 24-28 g; Orient Bio, Korea) were habituated before test in test room for 1 hour Animals were fasted 2 hr, before administration of compounds. Each of Compound 1, 2, 3, 4, 5, 63, 65, and 67 was orally administered at the dose of 20 mg/kg, 10 ul/g, bw (n=3˜5/group). All compounds were dissolved in a vehicle of 30% (v/v) PEG 400 or 20% (v/v) Tween 80. The control group was treated the vehicle without compounds.
One hour after the administration of Compounds, 0.6% acetic acid at the dose of 10 ul/g, bw was injected into the mice. Animals were habituated in the cage for 5 min 5 min after habituation, the number of writhes (abdominal constriction) for 15 min was counted referring to Korzeniewska-Rybicka, I. et al. (1998) and compared with that of a control.

mice = assay: Measurement of neurotoxicity (rotarod); format: in vivo; details: protective index, ratio of TD50 to ED50 in MES
Description: The measurement of neurotoxicity of the test compounds was conducted by the method of Dunham and Miya [Dunham, N. W. and Miya, T. S. 1957. A note on a simple apparatus for detecting neurological deficit in rats and mice. J. Am. Pharm. Assoc. (Baltimore) 46: 208-209]. In the method, motor abilities of the test animals can be determined by observing whether the test animals can walk without falling from a rotator, thereby determining the value of neurotoxicity of each compound. […] They were pre-trained on the rotarod (Rotarod; Columbus instrument, rota-max, USA) at 6 rpm for 5 min 24 hr prior to the test. The peak time was determined by administration test material's random dose for 0.5, 1, 2, 4 hour. […] The ratio of TD50 to ED50 (TD50/ED50) is called as a protective index, and useful as a parameter for comparison of pharmaceutical efficacy and neurotoxicity.

SNL model in rats = assay: Antiallodynic activity on Chung model (SNL, spinal nerve ligation), von Frey; format: in vivo, Sprague-Dawley rats; details: paw withdrawal threshold relative to sham, 50 mg/kg p.o.
Description: Male Sprague-Dawley rats (200-220 g, Orient Bio, Korea) were habituated for 1 week before the experiment and allowed free access to food and water throughout the experimentation. Room temperature and humidity were maintained at 24±2° C. and 50±10%, respectively. Neuropathic surgery (SNL, Spinal nerve ligation) model was done as described in Kim and Chung (1992). Briefly, animal under gaseous anesthesia with isoflurane a 4:4 flow ratio of NO2. The left lumber spinal nerve L5 and L6 were isolated and tightly ligated with 4˜0 silk thread. The wound was treated with a gentamicin antibiotics solution (4 mg/kg, 4 ul/g, bw), and the wound muscle was closed with cat cut chrome 4/0 thread and skin was closed dafilon 4/0 tread. Sham controls were prepared in the same manner as the spinal nerves were exposed, but no ligated L5 and L6 nerves. But, vehicle controls were identical to SNL model, except for administration of vehicles.
Tactile sensitivity (Mechanical allodynia) was evaluated using von Frey monofilaments before and after treatment and animals were used withdrawal threshold value was less than 4 g. […] The tactile sensitivity for ipsilateral hind paw was measured using the up-and-down method (Dixon, 1980) with seven von Frey monofilaments (0.4, 1, 2, 4, 6, 8, and 15 g) to 3 trials. […] The 50% paw withdrawal threshold for each paw was calculated using the following formula: [Xth] log=[vFr] log+ky where [vFr] is the force of the last von Frey used, k=0.2249 which is the average interval (in log units) between the von Frey monofilaments, and y is a value that depends upon the pattern of withdrawal responses (Dixon, 1980).
All animals were fasted 18 h before the administration of the compounds. Antiallodynic effect of compounds of Examples 1, 63 and 65 were evaluated at the dose of 5, 10 and 30 mg/kg (n=5˜6), orally administrated in a volume of 5 ul/g, bw in a vehicle of 30% (v/v) PEG 400 (Examples 1 and 63) or 20% (v/v) Tween 80 (Example 65). […]

SMILES	Hot-plate test (150 mg/kg, 0.5 h, po) % Control (ICR mice [1])	Writhing test (20 mg/kg, 1 h, po) % Control (ICR mice [2])	PI(TD50/ED50 in MES) (mice)	SNL (50 mg/kg, 1 h, p.o.) % Control (SNL model in rats)
CC(OC(N)=O)C(O)c1ccccc1Cl (racemic) [Example 3, 1-(2-chlorophenyl)-1-hydroxypropyl-2-carbamate]	120.5%	84.8%	12.0	
C[C@@H](OC(N)=O)[C@H](O)c1ccccc1Cl [Example 2, 1-(2-chlorophenyl)-(R)-1-hydroxypropyl-(R)-2-carbamate]	129.8%	73.8%	7.3	
C[C@@H](OC(N)=O)[C@@H](O)c1ccccc1Cl [Example 4, 1-(2-chlorophenyl)-(S)-1-hydroxypropyl-(R)-2-carbamate]	108.2%	75.5%		
C[C@H](OC(N)=O)[C@H](O)c1ccccc1Cl [Example 5, 1-(2-chlorophenyl)-(R)-1-hydroxypropyl-(S)-2-carbamate]	145.5%	66.6%	3.3	
C[C@H](OC(N)=O)[C@@H](O)c1c(Cl)cccc1Cl [Example 37, 1-(2,6-dichlorophenyl)-(S)-1-hydroxypropyl-(S)-2-carbamate]			5.1	
C[C@H](OC(N)=O)[C@@H](O)c1ccccc1F [Example 63, 1-(2-fluorophenyl)-(S)-1-hydroxypropyl-(S)-2-carbamate]	183.1%	63.9%		55.4%
C[C@H](OC(N)=O)[C@@H](O)c1ccccc1I [Example 65, 1-(2-iodophenyl)-(S)-1-hydroxypropyl-(S)-2-carbamate]	104.1%	60.6%		76.8%
CC[C@H](OC(N)=O)[C@@H](O)c1ccccc1I [Example 67, 1-(2-iodophenyl)-(S)-1-hydroxybutyl-(S)-2-carbamate]	131.4%	68.3%		
